Source: publication PMC7321382, “Synthesis and Antibacterial Analysis of Analogues of the Marine Alkaloid Pseudoceratidine” (Molecules, 2020)
Converted amounts (≈) assume the structure as drawn.

Assays:
S. aureus 16207 = experiment: Antibacterial MIC, broth microdilution, S. aureus; type: cell-based, Staphylococcus aureus; conditions: Gram-positive, 24 h incubation, highest concentration tested 32 µM; for MIC: Staphylococcus aureus, 16207
Protocol: (§1) The MIC was determined using the broth microdilution method. Mueller Hinton (MH) broth base was prepared in milli-Q water, then autoclaved at 120 °C for 1 h before allowing it to cool to room temperature. A single colony of each bacterial strain (E. coli DH5α and S. aureus 16207) was inoculated in MHB and incubated at 37 °C overnight. Overnight cultures were adjusted to 10^6 CFU/mL in MHB according to the McFarland Standard,100 μL of which was further diluted to a total of 10 mL in the media. The stock solutions of the compounds were prepared at 12.8 mM in purified DMSO. The stock solutions were further diluted in milli-Q water to 64 μM in 0.5% DMSO for testing against S. aureus, and 256 μM in 2% DMSO for testing against E. coli. Compounds that were not soluble in these solvent mixtures were further diluted in half to get clear solutions for the bioassay. DMSO is known to have weak antibacterial activity. To exclude the antibacterial effect of DMSO from the results, a solution of 2% DMSO in milli-Q water was used as an additional control in the experiments. The compounds and three controls (the natural product pseudoceratidine 1 for both strains, streptomycin for S. aureus, and polymyxin B for E. coli) then underwent a dilution series. The assay was performed by adding 50 μL of each compound solution at the different concentrations and 50 μL of the diluted bacterial culture to the different wells of a 96-well microtiter plate. The experiments were performed at least thrice and in triplicates. MIC after 24 h of incubation was determined by both visual inspection and absorbance at 600 nm using an EnSpire Multimode plate reader.

E. coli DH5α = experiment: Antibacterial MIC, broth microdilution, E. coli; type: cell-based, Escherichia coli; conditions: Escherichia coli; Gram-negative; 24 h incubation; highest concentration tested 128 µM; † lower starting concentration due to insolubility
Protocol: as §1

[1] = test system: HEK293 human embryonic kidney cells; experiment: Cytotoxicity, sulforhodamine B cell proliferation assay; type: cell-based; conditions: for relative growth of HEK293 cells (% of untreated control) at 16 µM: Homo sapiens, 72 h, 16 µM compound, 3 days, relative to control with no treatment, mean ± SD of triplicates
Protocol: As described previously, cell proliferation was measured by sulforhodamine B colorimetric assay in which 2000 HEK293 human embryonic kidney cells were seeded in 96-well plates in the presence of varying concentrations of drugs. The sulforhodamine B colorimetric assay, which is based on the measurement of cellular protein content, was used to measure cell density. After drug treatment for 3 days, cells were fixed with 10% (w/v) trichloroacetic acid and stained with 0.057% (w/v) sulforhodamine B for 30 min, and the excess dye was removed by washing repeatedly with 1% (v/v) acetic acid. The protein-bound dye was dissolved in Tris base solution (10 mM) for optical density determination at 510 nm using a microplate reader. All experiments were done in triplicate, and were repeated at least twice. The optimal cell densities were previously determined to select initial cell densities that ensured that the cells were in the logarithmic phase for the experiments.

SMILES	MIC S. Aureus (S. aureus 16207) [µM]	MIC (S. aureus 16207) [µM]	melting point [°C]	MIC (E. coli DH5α) [µM]	cytotoxic activity (in words) ([1]; HEK293, at concentrations 2–4 times the MIC (16 µM))	relative growth of HEK293 cells (% of untreated control) at 16 µM [1] [%]
O=C(NCCCNCCCNCCCNC(=O)c1cc(Cl)c(Cl)[nH]1)c1cc(Cl)c(Cl)[nH]1 [Compound 18c]	4 to 8	4 to 8 (≈ 2.05 to 4.1 µg/mL)	109 to 111	32 to 64 (≈ 16.4 to 32.8 µg/mL)	almost no cytotoxic activity	98 ± 4.5
O=C(NCCCCNC(=O)c1cc(Br)c[nH]1)c1cc(Br)c[nH]1 [Compound 12d]	–	> 32	> 230	> 64	–	–
O=C(NCCCCNC(=O)c1ccc[nH]1)c1ccc[nH]1 [Compound 12a]	–	> 32	215 to 216	> 128	–	–
O=C(NCCCCCCNCCCCCCNC(=O)c1cc(Cl)c[nH]1)c1cc(Cl)c[nH]1 [Compound 15b]	–	> 32	106 to 108	> 128	–	–
O=C(NCCCCCCNCCCCCCNC(=O)c1cc(I)c[nH]1)c1cc(I)c[nH]1 [Compound 15f]	–	> 32	174 to 176	> 64	–	–
O=C(NCCCNCCNC(=O)c1cc(Cl)c[nH]1)c1cc(Cl)c[nH]1 [Compound 16b]	–	> 32	167 to 169	> 128	–	–
O=C(NCCCNCCCCNCCCNC(=O)c1cc(Cl)c[nH]1)c1cc(Cl)c[nH]1 [Compound 19b]	–	> 32	194 to 195	> 128	–	–
O=C(NCCCNCCNC(=O)c1ccc[nH]1)c1ccc[nH]1 [Compound 16a]	–	> 32	69 to 71	> 128	–	–
O=C(NCCCCNCCCNC(=O)c1cc(Cl)c[nH]1)c1cc(Cl)c[nH]1 [Compound 17b]	–	> 32	80 to 81	> 128	–	–
O=C(NCCCCNC(=O)c1cc(Cl)c(Cl)[nH]1)c1cc(Cl)c(Cl)[nH]1 [Compound 12c]	–	> 32	> 230	> 64	–	–
CN(C)CCCNC(=O)c1cc(I)c[nH]1 [Compound 27f]	–	> 32	169 to 171	> 128	–	–
O=C(NCCNCCNC(=O)c1cc(Br)c[nH]1)c1cc(Br)c[nH]1 [Compound 13d]	–	> 32	201 to 203	> 128	–	–
O=C(NCCCCNC(=O)c1cc(Cl)c[nH]1)c1cc(Cl)c[nH]1 [Compound 12b]	–	> 32	> 230	> 64	–	–
O=C(NCCNCCNC(=O)c1cc(Cl)c[nH]1)c1cc(Cl)c[nH]1 [Compound 13b]	–	> 32	199 to 201	> 128	–	–
CC(C)(C)OC(=O)NCCCNC(=O)c1cc(I)c[nH]1 [Compound 28f]	–	> 32	128 to 130	> 128	–	–
O=C(NCCCNCCNC(=O)c1cc(Br)c[nH]1)c1cc(Br)c[nH]1 [Compound 16d]	–	> 32	188 to 190	> 128	–	–
O=C(NCCCNCCCCNCCCNC(=O)c1cc(I)c[nH]1)c1cc(I)c[nH]1 [Compound 19f]	–	16 to 32 (≈ 10.2 to 20.5 µg/mL)	173 to 175	> 128	–	–
O=C(NCCNCCNC(=O)c1ccc[nH]1)c1ccc[nH]1 [Compound 13a]	–	> 32	191 to 193	> 128	–	–

SMILES	MIC S. Aureus (S. aureus 16207) [µM]	MIC (S. aureus 16207) [µM]	melting point [°C]	MIC (E. coli DH5α) [µM]	cytotoxic activity (in words) ([1]; HEK293, at concentrations 2–4 times the MIC (16 µM))	relative growth of HEK293 cells (% of untreated control) at 16 µM [1] [%]
O=C(NCCCNCCCNC(=O)c1ccc[nH]1)c1ccc[nH]1 [Compound 14a]	–	> 32	165 to 166	> 128	–	–
O=C(NCCCNCCCNCCCNC(=O)c1cc(Br)c(Br)[nH]1)c1cc(Br)c(Br)[nH]1 [Compound 18e]	2 to 4	2 to 4 (≈ 1.38 to 2.76 µg/mL)	–	32 to 64 (≈ 22.1 to 44.2 µg/mL)	–	2.1 ± 1.5
CC(C)(C)OC(=O)NCCCNC(=O)c1ccc[nH]1 [Compound 28a]	–	> 32	90 to 91	> 128	–	–
O=C(NCCCNCCCCNCCCNC(=O)c1cc(Br)c[nH]1)c1cc(Br)c[nH]1 [Compound 19d]	–	16 to 32 (≈ 8.74 to 17.5 µg/mL)	173 to 175	64 to 128 (≈ 35 to 69.9 µg/mL)	–	–
O=C(NCCCCCCNCCCCCCNC(=O)c1cc(Br)c[nH]1)c1cc(Br)c[nH]1 [Compound 15d]	–	> 32	178 to 180	> 64	–	–
O=C(NCCCNCCCNC(=O)c1cc(I)c[nH]1)c1cc(I)c[nH]1 [Compound 14f]	–	> 32	93 to 95	> 128	–	–
O=C(NCCNCCNC(=O)c1cc(I)c[nH]1)c1cc(I)c[nH]1 [Compound 13f]	–	> 32	193 to 195	> 64	–	–
O=C(NCCCNCCCNC(=O)c1cc(Cl)c[nH]1)c1cc(Cl)c[nH]1 [Compound 14b]	–	> 32	78 to 80	> 128	–	–
O=C(NCCCNCCCNCCCNC(=O)c1cc(I)c[nH]1)c1cc(I)c[nH]1 [Compound 18f]	–	16 to 32 (≈ 10 to 20 µg/mL)	78 to 80	64 to 128 (≈ 40.1 to 80.2 µg/mL)	–	–
O=C(NCCCNCCCCNCCCNC(=O)c1ccc[nH]1)c1ccc[nH]1 [Compound 19a]	–	> 32	175 to 176	> 128	–	–
O=C(NCCCNCCCNC(=O)c1cc(Br)c[nH]1)c1cc(Br)c[nH]1 [Compound 14d]	–	> 32	73 to 75	> 128	–	–
O=C(NCCCCCCNCCCCCCNC(=O)c1cc(Br)c(Br)[nH]1)c1cc(Br)c(Br)[nH]1 [Compound 15e]	4 to 8	4 to 8 (≈ 2.87 to 5.74 µg/mL)	–	16 to 32 (≈ 11.5 to 22.9 µg/mL)	–	1.3 ± 0.8
O=C(NCCNCCNC(=O)c1cc(Cl)c(Cl)[nH]1)c1cc(Cl)c(Cl)[nH]1 [Compound 13c]	–	> 32	> 230	> 64	–	–
O=C(NCCCNCCNC(=O)c1cc(I)c[nH]1)c1cc(I)c[nH]1 [Compound 16f]	–	> 32	178 to 180	> 128	–	–
O=C(NCCCCCCNCCCCCCNC(=O)c1ccc[nH]1)c1ccc[nH]1 [Compound 15a]	–	> 32	129 to 131	> 128	–	–
O=C(NCCNCCNC(=O)c1cc(Br)c(Br)[nH]1)c1cc(Br)c(Br)[nH]1 [Compound 13e]	–	> 32	> 230	> 64	–	–
CC(C)(C)OC(=O)NCCCNC(=O)c1cc(Cl)c(Cl)[nH]1 [Compound 28c]	–	> 32	158 to 160	> 128	–	–
